Read-outs that look alike come from different tables or passages of the source.
Experiments:
mouse A2AAR [1] = target: T1, mouse A2AAR (Mus musculus, UniProt Q60613); details: read-out: Ki, mouse A2AAR, 2006, cited from earlier work
mouse A1AR [2] = target: T2, mouse A1AR (Mus musculus, UniProt Q60612); details: read-out: Ki, mouse A1AR, cited from earlier work
T2 sequence (Q60612 1-326): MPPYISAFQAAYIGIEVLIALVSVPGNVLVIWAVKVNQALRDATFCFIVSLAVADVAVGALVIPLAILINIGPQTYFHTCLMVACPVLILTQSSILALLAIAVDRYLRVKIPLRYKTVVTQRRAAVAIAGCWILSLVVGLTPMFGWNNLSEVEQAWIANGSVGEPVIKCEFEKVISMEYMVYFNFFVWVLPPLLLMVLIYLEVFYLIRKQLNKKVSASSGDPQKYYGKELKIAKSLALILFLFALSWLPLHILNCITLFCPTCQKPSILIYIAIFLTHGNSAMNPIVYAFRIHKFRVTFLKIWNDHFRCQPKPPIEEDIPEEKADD

mouse A3AR [3] = target: T3, mouse A3AR (Mus musculus, UniProt Q61618); details: cited from earlier work
T3 sequence (Q61618 1-319): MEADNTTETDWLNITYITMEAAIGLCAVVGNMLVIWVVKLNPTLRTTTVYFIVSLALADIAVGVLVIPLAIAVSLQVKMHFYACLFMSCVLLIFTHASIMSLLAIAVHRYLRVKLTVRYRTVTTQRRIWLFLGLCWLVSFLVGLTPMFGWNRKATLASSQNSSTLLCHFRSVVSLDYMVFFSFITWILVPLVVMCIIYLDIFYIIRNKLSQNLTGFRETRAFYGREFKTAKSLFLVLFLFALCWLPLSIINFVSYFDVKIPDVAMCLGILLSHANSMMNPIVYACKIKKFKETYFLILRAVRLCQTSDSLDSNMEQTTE

mice [4] = assay: Body temperature; format: in vivo, mouse
mouse A1AR [5] = target: T2, mouse A1AR; assay: Radioligand binding, recombinant mouse A1AR in HEK-293 membranes
Human A2AAR [6] = target: T4, Human A2AAR (Homo sapiens, UniProt P29274); assay: Ligand binding affinity at human A2AAR
T4 sequence (P29274 whole entry): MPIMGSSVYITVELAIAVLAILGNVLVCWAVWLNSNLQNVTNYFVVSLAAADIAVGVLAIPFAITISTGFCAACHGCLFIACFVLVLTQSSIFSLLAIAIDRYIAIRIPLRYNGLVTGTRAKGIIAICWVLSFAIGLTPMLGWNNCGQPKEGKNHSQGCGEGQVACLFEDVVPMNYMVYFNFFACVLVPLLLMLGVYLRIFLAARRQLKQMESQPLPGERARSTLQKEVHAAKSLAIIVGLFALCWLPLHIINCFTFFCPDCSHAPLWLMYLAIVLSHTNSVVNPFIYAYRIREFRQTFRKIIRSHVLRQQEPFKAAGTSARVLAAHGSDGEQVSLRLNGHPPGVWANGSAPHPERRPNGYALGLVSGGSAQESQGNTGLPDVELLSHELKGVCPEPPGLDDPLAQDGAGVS

mouse A3AR [7] = target: T3, mouse A3AR; assay: Radioligand binding, recombinant mouse A3AR in HEK-293 membranes
mouse A2AAR [8] = target: T1, mouse A2AAR; assay: Radioligand binding, recombinant mouse A2AAR in HEK-293 membranes; details: read-out: % inhibition at 10 µM, mouse A2AAR
Human A1AR = target: T5, Human A1AR (Homo sapiens, UniProt P30542); assay: Ligand binding affinity at human A1AR
T5 sequence (P30542 1-326): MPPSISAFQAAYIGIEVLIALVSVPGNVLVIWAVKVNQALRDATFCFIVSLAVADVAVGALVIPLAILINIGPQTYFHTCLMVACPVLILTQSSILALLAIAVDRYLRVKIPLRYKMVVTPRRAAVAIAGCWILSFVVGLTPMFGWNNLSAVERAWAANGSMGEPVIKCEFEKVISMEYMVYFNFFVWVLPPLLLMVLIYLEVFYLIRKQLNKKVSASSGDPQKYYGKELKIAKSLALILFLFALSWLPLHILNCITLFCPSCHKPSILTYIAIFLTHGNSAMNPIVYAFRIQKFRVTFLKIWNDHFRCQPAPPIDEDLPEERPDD

Human A3AR = target: T6, Human A3AR (Homo sapiens, UniProt P0DMS8); assay: Ligand binding affinity at human A3AR
T6 sequence (P0DMS8 1-318): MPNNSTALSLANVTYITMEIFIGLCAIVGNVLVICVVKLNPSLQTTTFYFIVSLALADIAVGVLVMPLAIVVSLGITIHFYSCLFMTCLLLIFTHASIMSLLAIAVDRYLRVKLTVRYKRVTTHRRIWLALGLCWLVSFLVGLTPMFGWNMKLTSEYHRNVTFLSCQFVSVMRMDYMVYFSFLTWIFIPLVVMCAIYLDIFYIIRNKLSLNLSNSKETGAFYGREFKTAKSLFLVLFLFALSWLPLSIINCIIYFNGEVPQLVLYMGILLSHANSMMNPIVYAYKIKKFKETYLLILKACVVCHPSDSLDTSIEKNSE

[9] = 500–3500 mg/kg, i.p.; ref Zhang et al, 2006; cited from earlier work
mice [10] = assay: Indirect calorimetry; format: in vivo, mouse; details: C57BL/6J mice, 100 mg/kg, i.p.
mice [11] = assay: Temperature gradient; format: in vivo, mouse
Human A2AAR [12] = target: T4, Human A2AAR; details: read-out: Ki, human A2AAR; ref Tosh et al, 2012b; cited from earlier work
[13] = C57BL/6J mice, 0.02–0.2 mg/kg, i.p., dose-dependent
[14] = C57BL/6J mice, 100 µg/mouse (~3.3 mg/kg), i.c.v.
[15] = C57BL/6J mice, 0.03–3 mg/kg, i.p.

T1 sequence (Q60613 whole entry): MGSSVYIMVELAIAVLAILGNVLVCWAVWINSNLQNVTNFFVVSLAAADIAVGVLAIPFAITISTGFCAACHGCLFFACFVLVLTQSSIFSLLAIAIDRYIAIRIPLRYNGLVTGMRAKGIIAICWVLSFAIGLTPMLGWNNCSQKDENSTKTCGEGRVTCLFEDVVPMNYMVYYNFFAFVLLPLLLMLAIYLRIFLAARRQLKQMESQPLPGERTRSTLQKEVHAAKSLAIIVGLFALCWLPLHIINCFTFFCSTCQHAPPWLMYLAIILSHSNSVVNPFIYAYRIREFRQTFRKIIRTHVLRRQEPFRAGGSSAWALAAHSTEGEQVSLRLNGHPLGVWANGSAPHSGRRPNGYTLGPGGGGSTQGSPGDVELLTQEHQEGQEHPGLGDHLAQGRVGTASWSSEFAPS

CNC(=O)[C@H]1O[C@@H](n2cnc3c(NCc4cccc(I)c4)nc(Cl)nc32)[C@H](O)[C@@H]1O [Cl-IB-MECA, 2-chloro-N6-(3-iodobenzyl)adenosine-5'-N-methylcarboxamide]
Ki (mouse A2AAR [1]; ref Ge et al): ~10000 nM

OC[C@H]1O[C@@H](n2cnc3c(NC4CCCC4)nc(Cl)nc32)[C@H](O)[C@@H]1O [CCPA, 2-chloro-N^6-cyclopentyladenosine]
Ki (mouse A1AR [2]; ref Alnouri et al, 2015): 0.27 nM
Ki (mouse A3AR [3]; read-out: Ki, mouse A3AR, ref Alnouri et al, 2015): 16 nM

OC[C@H]1O[C@@H](n2cnc3c(NC4CCCCC4)ncnc32)[C@H](O)[C@@H]1O [CHA, N^6-cyclohexyladenosine]
Hypothermia in Adora1−/− mice vs wild type (mice [4]; 0.05 mg/kg, i.p.): attenuated
Hypothermia in Adora1−/−;Adora3−/− double knockout mice (mice [4]; 0.05 mg/kg, i.p.): completely lost
Hypothermia in Adora3−/− mice vs wild type (mice [4]; 0.05 mg/kg, i.p.): attenuated
Effect on Tb (mice [4]; [13]): drop in Tb
Effect on duration of hypothermia (mice [4]; [13]): increase in duration of hypothermia
Effect on physical activity (mice [4]; [13]): reduced physical activity
Ki (mouse A1AR [5]): 2.15 ± 0.37 nM

O=S(=O)(O)c1ccc(Nc2ncnc3c2ncn3[C@@H]2O[C@H](CO)[C@@H](O)[C@H]2O)cc1 [SPA, N^6-(p-sulfo-phenyl)adenosine]
Ki (Human A2AAR [6]): 3780 ± 890 nM
Ki (mouse A3AR [7]): 3110 ± 183 nM
Ki (mouse A1AR [5]): 1.08 ± 0.04 nM
Selectivity for binding to mouse A1AR over A3AR (mouse A1AR [5]; from Table 1 Ki values): ~ 3000 fold
inhibition at 10 µM (mouse A2AAR [8]): 33 ± 2%
Ki (Human A1AR): 7.92 ± 1.55 nM
Ki (Human A3AR): 246 ± 21 nM

CCNC(=O)[C@H]1O[C@@H](n2cnc3c(N)nc(NCCc4ccc(CCC(=O)O)cc4)nc32)[C@H](O)[C@@H]1O [CGS21680]
Ki (mouse A3AR [7]): 48 ± 11 nM
Ki (mouse A1AR [5]): 193 ± 38 nM

Nc1ncnc2c1ncn2[C@@H]1O[C@H](COP(=O)(O)O)[C@@H](O)[C@H]1O [AMP, adenosine 5'-monophosphate]
Hypothermia from i.c.v. dosing in Adora1−/− mice (mice [4]; 100 µg/mouse (~3.3 mg/kg), i.c.v.): not attenuated
Hypothermia in Adora1−/− mice (mice [4]; 100 mg/kg, i.p.): intact
Hypothermia in Adora1−/−;Adora3−/− double knockout mice (mice [4]; 100 mg/kg, i.p.): intact
Hypothermia in Adora3−/− mice (mice [4]; 100 mg/kg, i.p.): intact
Hypothermia in Kit W-sh/W-sh mice (mice [4]; 100 mg/kg, i.p.): partially intact
Hypothermia after pretreatment with raclopride (mice [4]; AMP 100 mg/kg, i.p., raclopride 2 mg/kg, data not shown): did not block
Hypothermia after pretreatment with pyrilamine (mice [4]; Adora1−/− mice, AMP 100 mg/kg, i.p., pyrilamine 10 mg/kg, data not shown): did not ablate
Effect on Tb, i.c.v. infusion (mice [4]; [14]): drop in Tb that was comparable to a 30-fold larger (100 mg/kg) systemic dose
Torpor induction by large doses [9]: induce torpor
Effect on metabolic rate (total energy expenditure) (mice [10]): drop in metabolic rate that preceded the hypothermia
Time of TEE nadir (mice [10]): ~ 40 min
Time of Tb nadir (mice [10]): ~ 60 min
Ambient temperature preference (mice [11]; 100 mg/kg, i.p., not shown): did not observe a clear change
Activity in thermal gradient (mice [11]; [14]): without a significant drop in activity
Activity in thermal gradient (mice [11]; C57BL/6J mice, 300 mg/kg, i.p.): became immobile
Position in thermal gradient (mice [11]; C57BL/6J mice, 300 mg/kg, i.p.): moved to a cooler region

COc1ccc(CN(CCN(C)C)c2ccccn2)cc1 [Pyrilamine, pyrilamine]
Effect of H1R antagonist on MRS5474-induced hypothermia (mice [4]; MRS5474 at dose selective for A3AR, inhibitor dosed 15 min before agonist): inhibited hypothermia
Effect of H1R antagonist on A1AR agonist-induced hypothermia (mice [4]; inhibitor dosed 15 min before agonist, Fig. S4A–D): did not block

CCCn1c(=O)c2[nH]c(C3CCCC3)nc2n(CCC)c1=O [DPCPX]
Ki (mouse A1AR [2]; ref Kreckler et al, 2006): 1.5 nM
% inhibition at 10 µM, mouse A3AR (mouse A3AR [3]; 10 µM, ref Kreckler et al, 2006): 0%
Ki (mouse A2AAR [1]; ref Kreckler et al): 598 nM

O[C@@H]1[C@@H]2C[C@@H]2C(n2cnc3c(NC(C4CC4)C4CC4)nc(Cl)nc32)[C@@H]1O (stereo partly drawn) [MRS5474, (1R,2R,3S,5S)-4-(2-chloro-6-((dicyclopropylmethyl)amino)-9H-purin-9-yl)bicyclo[3.1.0]hexane-2,3-diol]
Ki (Human A2AAR [12]): 3950 nM
Receptor mediating hypothermia (Adora1−/− and Adora3−/− mice) (mice [4]; 3 mg/kg, i.p.): via A3AR, without a clear contribution from A1AR
Hypothermia after pretreatment with raclopride (mice [4]; 3 mg/kg, i.p., raclopride 1 mg/kg, data not shown): not inhibited
Effect on Tb (mice [4]; mice, doses in Fig. S2A,B): dose-dependent hypothermia
Effect on physical activity (mice [4]; mice, doses in Fig. S2A,B and data not shown): hypoactivity

OC[C@H]1O[C@@H](n2cnc3c(NC4CCCC4)ncnc32)[C@H](O)[C@@H]1O [CPA, N^6-cyclopentyladenosine]
Hypothermia in Adora1−/− mice vs wild type (mice [4]; 0.3 mg/kg, i.p.): not significantly attenuated
Hypothermia in Adora3−/− mice vs wild type (mice [4]; 0.3 mg/kg, i.p.): attenuated but still present
Effect on Tb (mice [4]; [15]): dose-dependent (0.03–3 mg/kg, i.p.) hypothermia
Effect on physical activity (mice [4]; [15]): reduction in physical activity

CNC(=O)[C@H]1O[C@@H](n2cnc3c(NCc4cccc(I)c4)ncnc32)[C@H](O)[C@@H]1O [IB-MECA]
Ki (mouse A2AAR [1]; ref Ge et al): ~1000 nM
